NC(=O)N1c2ccccc2CC(=O)c2ccccc21
solubility (mole fraction)
Details | in DMAc | in DMF | in DMSO | in NMP | in transcutol | in water
288.15 K | 0.0256 | 0.0202 | 0.0312 | 0.0346 | 0.00418 | 5.42e-06
293.15 K | 0.0189 | 0.0212 | 0.0339 | 0.0358 | 0.00437 | 5.85e-06
298.15 K | 0.0205 | 0.0174 | 0.0367 | 0.0369 | 0.00456 | 6.3e-06
303.15 K | 0.0222 | 0.0183 | 0.0259 | 0.038 | 0.00475 | 6.74e-06
308.15 K | 0.0239 | 0.0193 | 0.0285 | 0.0335 | 0.00495 | 7.2e-06
